Test results published in ChEMBL document CHEMBL1287661, “Computational structure-activity relationship analysis of small-molecule agonists for human formyl peptide receptors” (Eur J Med Chem, 2010).
Activity calls are given as the source filed them.

Tests used:
[1] = target: T1, N-formyl peptide receptor 2 (Homo sapiens) (UniProt P25090); experiment: Agonist activity at human FPR2 expressed in RBL-2H3 cells assessed as induction of calcium mobilization; assay type: functional, cell-based
T1 sequence (whole entry): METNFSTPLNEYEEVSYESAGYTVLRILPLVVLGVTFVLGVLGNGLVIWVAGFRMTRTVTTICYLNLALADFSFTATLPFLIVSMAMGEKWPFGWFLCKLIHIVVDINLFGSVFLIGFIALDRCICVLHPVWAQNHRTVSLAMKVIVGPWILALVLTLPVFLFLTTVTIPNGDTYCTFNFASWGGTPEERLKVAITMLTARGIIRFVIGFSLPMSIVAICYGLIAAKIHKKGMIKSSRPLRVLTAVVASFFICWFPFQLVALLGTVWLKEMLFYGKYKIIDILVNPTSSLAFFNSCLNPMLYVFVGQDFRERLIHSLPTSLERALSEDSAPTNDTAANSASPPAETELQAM

[2] = target: T2, fMet-Leu-Phe receptor (Homo sapiens) (UniProt P21462); experiment: Agonist activity at human FPR1 expressed in RBL-2H3 cells assessed as induction of calcium mobilization; assay type: functional, cell-based
T2 sequence (whole entry): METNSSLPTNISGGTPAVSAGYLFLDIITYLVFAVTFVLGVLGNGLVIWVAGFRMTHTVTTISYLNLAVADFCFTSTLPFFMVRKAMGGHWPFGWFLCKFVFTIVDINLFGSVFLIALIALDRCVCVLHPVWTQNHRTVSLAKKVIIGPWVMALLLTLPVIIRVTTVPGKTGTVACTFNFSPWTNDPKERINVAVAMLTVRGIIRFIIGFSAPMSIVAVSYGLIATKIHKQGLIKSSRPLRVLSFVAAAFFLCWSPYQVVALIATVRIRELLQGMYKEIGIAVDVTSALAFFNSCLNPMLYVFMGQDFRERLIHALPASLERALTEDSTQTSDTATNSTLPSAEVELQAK

| SMILES | Activity [1] | Activity [2] |
| --- | --- | --- |
| O=C(NNC(=O)c1ccccc1[N+](=O)[O-])c1ccc(Cl)cc1 | Active |  |
| O=C(CSc1nc2ccccc2s1)N/N=C/C=C/c1ccccc1[N+](=O)[O-] | inactive | inactive |
| COc1ccccc1/C=C/C=N/NC(=O)Cc1cccs1 | inactive | inactive |
| CCc1c(NC(=O)Nc2ccc(Cl)cc2)c(=O)n(-c2ccccc2)n1C | Active |  |
| CCCC(C)c1ccc(OCC(=O)N/N=C/c2ccsc2)cc1 (configuration not stated) | Active | Active |
| Cc1cccc(NC(=O)NCCc2ccc(Cl)cc2)c1 | inactive | inactive |
| Cc1ccc(CCNC(=O)Nc2ccc(F)cc2)cc1 | inactive | inactive |
| O=C(CN1CCN(c2cccc(Cl)c2)CC1)Nc1ccc(Br)cc1 | Active |  |
| CCOc1ccc2[nH]c(SCC(=O)Nc3ccc(OC)cc3)nc2c1 |  | Active |
| O=C(CN1CCN(c2ccccc2)CC1)Nc1ccc(F)c(Cl)c1 | inactive | inactive |
| O=C(Cc1ccc(Br)cc1)N/N=C/C=C/c1ccccc1[N+](=O)[O-] | Active |  |
| COc1ccc(CCNC(=O)Nc2ccc(Br)cc2)cc1 | Active |  |
| O=C(CN1CCN(c2ccccc2Cl)CC1)Nc1ccccc1 | inactive | inactive |
| O=C(CSc1nc2ccccc2[nH]1)Nc1cccc(Br)c1 | inactive | inactive |
| O=C(CN1CCN(c2ccccc2)CC1)Nc1ccccc1 | inactive | inactive |
| COc1ccc(CCNC(=O)Nc2ccc(F)cc2)cc1 | Active |  |
| Cc1c(Cl)cccc1N1CCN(CC(=O)Nc2ccc(Br)cc2)CC1 | Active |  |
| O=C(CNc1ccccc1)N/N=C/C=C/c1ccccc1[N+](=O)[O-] | Active |  |
| COc1ccc(C2Nc3ccccc3C(=O)N2NC(=O)c2ccc([N+](=O)[O-])cc2)cc1 (configuration not stated) | Active |  |
| O=C(CN1CCN(c2ccccn2)CC1)Nc1ccc(Cl)cc1 | inactive | inactive |
| O=C(CN1CCN(c2ccc(F)cc2)CC1)Nc1ccc(Br)cc1 | Active |  |
| O=C(CN1CCN(c2ccccc2)CC1)Nc1ccc(Br)cc1 | Active |  |

| SMILES | Activity [1] | Activity [2] |
| --- | --- | --- |
| COc1cc(/C=N/NC(=O)c2ccc3c(c2)OCO3)ccc1OCc1ccccc1 |  | Active |
| COc1ccc2[nH]c(SCC(=O)Nc3ccccc3OC)nc2c1 | Active | Active |
| COc1ccc2[nH]c(SCC(=O)Nc3ccc(Br)cc3)nc2c1 |  | Active |
| O=C(CN1CCN(c2ccccc2)CC1)Nc1ccccc1Br | inactive | inactive |
| CC1(C)CC(=O)C(C(c2cccc(OCc3ccccc3)c2)C2C(=O)CC(C)(C)CC2=O)C(=O)C1 |  | Active |
| COc1ccc(NC(=O)CCCCc2cccs2)cc1 | Active |  |
| O=C(NCCc1ccccc1)Nc1ccccc1 | inactive | inactive |
| COc1ccc(CCNC(=O)Nc2ccc(Cl)cc2Cl)cc1 | inactive | inactive |
| COc1cccc(Cc2cc(C)nn(CC(=O)Nc3ccc4c(c3)OCO4)c2=O)c1 |  | Active |
| COc1ccc2[nH]c(SCC(=O)Nc3ccc(OC)c(OC)c3)nc2c1 | Active | Active |
| Cc1ccc2[nH]c(SCC(=O)Nc3cccc(C(F)(F)F)c3)nc2c1 | inactive | inactive |
| COc1ccc(NC(=O)Nc2ccc(C(=O)N3CCCCC3)cc2)cc1 | Active | Active |
| CC(C)c1c(NC(=O)Nc2ccc(Cl)cc2)c(=O)n(-c2ccccc2)n1C | Active | Active |
| COc1ccc2[nH]c(SCC(=O)Nc3ccc(Cl)cc3)nc2c1 | Active | Active |
| COc1ccc(NC(=S)NN2C(=O)CSC2c2c[nH]c3ccccc23)cc1 (configuration not stated) | Active | Active |
| Cc1c(NC(=O)Nc2ccc(Br)cc2)c(=O)n(-c2ccccc2)n1C | Active |  |
| O=C(N/N=C/c1ccc(-c2cccc(Br)c2)o1)c1cccnc1 | Active |  |
| Cc1cccc2[nH]c(SCC(=O)Nc3ccc(Cl)c([N+](=O)[O-])c3)nc12 | inactive | inactive |
| O=C(N/N=C/c1ccc(-c2cccc(C(F)(F)F)c2)o1)c1ccc(F)cc1 | Active |  |
| CCc1nc2ccccc2n1[C@@H]1CCN(C(=O)c2nc3cc(OC)ccc3[nH]2)C1 | Active |  |
| COc1cccc(N2CCN(CC(=O)Nc3ccc(Br)cc3)CC2)c1 | Active |  |
| O=C(CN1CCN(c2ccc(Cl)cc2)CC1)Nc1ccc(Br)cc1 | Active |  |

| SMILES | Activity [1] | Activity [2] |
| --- | --- | --- |
| CSCC[C@H](NC(=O)[C@H](Cc1ccc(O)cc1)NC(=O)[C@H](CCCCN)NC(=O)[C@@H](N)Cc1c[nH]c2ccccc12)C(=O)N[C@H](C(=O)N[C@H](CCSC)C(N)=O)C(C)C | Active | Active |
| COc1ccc(CCNC(=O)Nc2ccccc2)cc1 | Active |  |
| O=C(CSc1nc2ccccc2[nH]1)Nc1ccc([N+](=O)[O-])cc1 | inactive | inactive |
| CCOc1ccc(NC(=O)CSc2nc3cc(OC)ccc3[nH]2)cc1 |  | Active |
| COc1ccc2[nH]c(SCC(=O)Nc3ccc([N+](=O)[O-])cc3)nc2c1 |  | Active |
| CCC(Nc1ccc(OC)cc1)C(=O)N/N=C(C)/C=C/c1ccccc1 (configuration not stated) | Active |  |
| O=C(NCCc1ccc(Cl)cc1)Nc1ccccc1[N+](=O)[O-] | inactive | inactive |
| O=C(CN1CCN(c2ccccc2)CC1)Nc1cccc(Br)c1 | inactive | inactive |
| Cc1ccc(Cl)cc1N1CCN(CC(=O)Nc2ccc(Br)cc2)CC1 | Active |  |
| O=C1NCC(c2ccccc2)C1C(=O)N/N=C/C=C/c1ccc(Br)cc1 (configuration not stated) | inactive | inactive |
| COc1ccc2[nH]c(SCC(=O)Nc3ccccc3)nc2c1 |  | Active |
| O=C1NCC(c2ccccc2)C1C(=O)N/N=C/C=C/c1ccccc1[N+](=O)[O-] (configuration not stated) | Active |  |
| CCOc1ccc(C(=O)NN2C(=O)c3ccccc3NC2c2ccc(OC)cc2)cc1 (configuration not stated) | Active |  |
| CSc1ccc(NC(=O)Nc2c(C)n(C)n(-c3ccccc3)c2=O)cc1 | Active |  |
| Cc1ccc(N2CCN(CC(=O)Nc3ccc(Br)cc3)CC2)cc1Cl | Active |  |
| COc1ccc(CCNC(=O)Nc2ccc(Cl)cc2)cc1 | Active |  |
| O=C(CSc1nc2ccccc2[nH]1)Nc1ccccc1 | inactive | inactive |
| O=C(Cc1ccccc1)N/N=C/C=C/c1ccccc1[N+](=O)[O-] | inactive | inactive |
| COc1cccc(NC(=O)CSc2nc3cc(OC)ccc3[nH]2)c1 |  | Active |
| COc1ccc(CC(=O)N/N=C/C=C/c2ccccc2[N+](=O)[O-])cc1OC | Active |  |
